For orientation: IC50 means the concentration that inhibits the measured activity by half.

Some results are limits rather than exact numbers.

We go through eleven compounds from ChEMBL document CHEMBL1139649, “Hetaryl imidazoles: a novel dual inhibitors of VEGF receptors I and II” (Bioorg Med Chem Lett, 2006).

Assay [1] addresses Fibroblast growth factor receptor 1 (Homo sapiens) (UniProt P11362). Description: Percent inhibition against FGFR1 at 10 uM by HTRF method. Set-up: scale not given: the % may be the effect or the level left. (In TR-FRET formats the signal depends on donor and acceptor labels being close together.)
Assay [2] deals with T1, Ephrin type-B receptor 4 (Homo sapiens) (UniProt P54760).
T1 sequence (whole entry): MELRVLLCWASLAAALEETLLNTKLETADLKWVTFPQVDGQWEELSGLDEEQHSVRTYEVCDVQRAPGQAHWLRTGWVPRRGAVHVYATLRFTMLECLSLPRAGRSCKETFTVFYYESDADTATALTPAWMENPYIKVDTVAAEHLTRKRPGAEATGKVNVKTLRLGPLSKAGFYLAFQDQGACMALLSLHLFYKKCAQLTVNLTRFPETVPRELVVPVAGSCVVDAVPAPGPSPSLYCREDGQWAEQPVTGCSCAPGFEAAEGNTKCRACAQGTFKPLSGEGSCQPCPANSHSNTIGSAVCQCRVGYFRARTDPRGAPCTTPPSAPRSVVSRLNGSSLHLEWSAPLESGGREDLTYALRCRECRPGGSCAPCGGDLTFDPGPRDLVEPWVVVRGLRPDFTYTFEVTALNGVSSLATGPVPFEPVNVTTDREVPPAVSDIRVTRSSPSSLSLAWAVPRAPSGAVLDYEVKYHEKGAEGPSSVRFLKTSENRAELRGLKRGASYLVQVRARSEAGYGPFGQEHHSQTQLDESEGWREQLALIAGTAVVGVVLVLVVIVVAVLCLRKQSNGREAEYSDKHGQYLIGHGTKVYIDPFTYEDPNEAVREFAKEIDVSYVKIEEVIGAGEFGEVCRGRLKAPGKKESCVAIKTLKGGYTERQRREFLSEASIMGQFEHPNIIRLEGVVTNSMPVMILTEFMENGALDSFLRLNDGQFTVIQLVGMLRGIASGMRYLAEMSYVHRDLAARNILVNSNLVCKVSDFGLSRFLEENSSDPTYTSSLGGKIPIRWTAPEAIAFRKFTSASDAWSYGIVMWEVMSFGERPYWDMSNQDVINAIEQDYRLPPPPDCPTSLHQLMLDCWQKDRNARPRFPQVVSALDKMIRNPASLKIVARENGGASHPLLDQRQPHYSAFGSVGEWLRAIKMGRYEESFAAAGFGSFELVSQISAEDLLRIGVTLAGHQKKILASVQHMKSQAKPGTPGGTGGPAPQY
The assay is described as follows: Percent inhibition against EphB4 at 10 uM by HTRF method. Also noted: scale not given: the % may be the effect or the level left.

Assay [3] concerns the target T2, Vascular endothelial growth factor receptor 2 (Homo sapiens, UniProt P35968). The assay is described as follows: Inhibition of VEGFR2 by enzymatic assay.
For assay [4], the target named is Receptor-type tyrosine-protein kinase FLT3 (Homo sapiens) (UniProt P36888). The assay is described as follows: Inhibition of Flt3 at 10 uM by HTRF method. Set-up: scale not given: the % may be the effect or the level left.
Sequence of Receptor-type tyrosine-protein kinase FLT3 (Homo sapiens) (P36888 whole entry): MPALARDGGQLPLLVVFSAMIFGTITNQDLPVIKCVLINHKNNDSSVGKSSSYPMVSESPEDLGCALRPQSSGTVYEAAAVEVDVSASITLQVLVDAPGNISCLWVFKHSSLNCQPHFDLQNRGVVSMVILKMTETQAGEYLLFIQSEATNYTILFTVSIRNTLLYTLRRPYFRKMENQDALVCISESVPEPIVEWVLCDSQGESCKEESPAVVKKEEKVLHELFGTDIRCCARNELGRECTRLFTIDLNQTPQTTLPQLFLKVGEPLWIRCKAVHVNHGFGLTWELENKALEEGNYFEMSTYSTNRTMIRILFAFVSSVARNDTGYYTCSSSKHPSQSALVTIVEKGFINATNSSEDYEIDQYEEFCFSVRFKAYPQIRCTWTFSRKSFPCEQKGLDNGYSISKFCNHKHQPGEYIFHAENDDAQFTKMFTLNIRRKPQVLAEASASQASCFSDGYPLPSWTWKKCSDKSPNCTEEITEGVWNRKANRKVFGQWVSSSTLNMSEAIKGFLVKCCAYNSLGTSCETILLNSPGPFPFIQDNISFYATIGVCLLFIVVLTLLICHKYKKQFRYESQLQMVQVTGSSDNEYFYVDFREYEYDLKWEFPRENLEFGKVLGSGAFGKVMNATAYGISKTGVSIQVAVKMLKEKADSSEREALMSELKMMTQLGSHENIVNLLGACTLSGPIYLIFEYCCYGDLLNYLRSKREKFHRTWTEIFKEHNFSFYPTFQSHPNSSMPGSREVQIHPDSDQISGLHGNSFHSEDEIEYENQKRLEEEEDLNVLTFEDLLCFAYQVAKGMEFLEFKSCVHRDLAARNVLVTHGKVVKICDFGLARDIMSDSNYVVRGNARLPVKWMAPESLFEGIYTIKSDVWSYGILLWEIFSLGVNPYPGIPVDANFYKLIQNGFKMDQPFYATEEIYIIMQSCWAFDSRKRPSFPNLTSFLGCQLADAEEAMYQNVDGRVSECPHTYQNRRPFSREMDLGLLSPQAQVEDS
For assay [5], the target named is cAMP-dependent protein kinase (PKA) (Homo sapiens) (UniProt P22694+P17612+P22612). The assay is described as follows: Inhibition against PKA at 10 uM by HTRF method. The assay is classed as protein assay. Also noted: scale not given: the % may be the effect or the level left.
Assay [6] addresses Vascular endothelial growth factor receptor 1 (Homo sapiens, UniProt P17948). The assay is described as follows: Inhibition of VEGFR1 by enzymatic assay.
For assay [7], the target named is Glycogen synthase kinase-3 beta (Homo sapiens) (UniProt P49841). Description: Inhibition against GSK3-beta at 10 uM by HTRF method. Set-up: scale not given: the % may be the effect or the level left.
Sequence of Glycogen synthase kinase-3 beta (Homo sapiens) (P49841 whole entry, looked up): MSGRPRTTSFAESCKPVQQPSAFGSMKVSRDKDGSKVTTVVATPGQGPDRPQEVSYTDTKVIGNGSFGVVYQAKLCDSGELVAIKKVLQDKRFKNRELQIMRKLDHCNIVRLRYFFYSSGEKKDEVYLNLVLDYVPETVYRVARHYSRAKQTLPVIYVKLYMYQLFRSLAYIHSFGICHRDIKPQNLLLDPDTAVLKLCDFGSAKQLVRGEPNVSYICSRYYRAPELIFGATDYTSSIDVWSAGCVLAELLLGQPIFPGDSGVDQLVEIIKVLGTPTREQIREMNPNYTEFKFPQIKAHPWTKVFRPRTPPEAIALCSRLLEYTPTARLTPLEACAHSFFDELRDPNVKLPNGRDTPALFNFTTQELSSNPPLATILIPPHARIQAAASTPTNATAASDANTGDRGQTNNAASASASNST
The target of assay [8] is Cyclin-dependent kinase 5 (Homo sapiens) (UniProt Q00535). The assay is described as follows: […] against Cdk5 at 10 uM by HTRF method.
Sequence of Cyclin-dependent kinase 5 (Homo sapiens) (Q00535 whole entry, looked up): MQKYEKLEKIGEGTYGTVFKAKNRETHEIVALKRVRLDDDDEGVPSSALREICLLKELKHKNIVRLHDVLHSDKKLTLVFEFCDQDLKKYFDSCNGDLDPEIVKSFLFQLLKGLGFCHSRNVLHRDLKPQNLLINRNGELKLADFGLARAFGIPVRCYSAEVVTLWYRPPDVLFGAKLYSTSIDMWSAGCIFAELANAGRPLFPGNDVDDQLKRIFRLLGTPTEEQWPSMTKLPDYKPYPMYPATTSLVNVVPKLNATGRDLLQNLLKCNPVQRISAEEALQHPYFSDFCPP
Assay [9] deals with T2, Vascular endothelial growth factor receptor 2. Description: Inhibition of VEGFR2 in 293 adenovirus transfected kidney cells by cell-based ELISA assay.
The target of assay [10] is Hepatocyte growth factor receptor (Homo sapiens) (UniProt P08581). Description: Percent inhibition against c-Met at 10 uM by HTRF method. Also noted: scale not given: the % may be the effect or the level left.
Assay [11] deals with Bcr/Abl fusion protein (Homo sapiens) (UniProt P00519+P11274). The assay is described as follows: Inhibition of bcr-Abl at 10 uM by HTRF method. The assay is classed as protein assay. Also noted: scale not given: the % may be the effect or the level left.
Assay [12] deals with Cyclin-dependent kinase 2 (Homo sapiens) (UniProt P24941). The assay is described as follows: […] against Cdk2 at 10 uM by HTRF method.
The target of assay [13] is Insulin-like growth factor 1 receptor (Homo sapiens) (UniProt P08069). Description: […] against IGF1R at 10 uM by HTRF method.
For assay [14], the target named is RAC-alpha serine/threonine-protein kinase (Homo sapiens) (UniProt P31749). Description: […] against PKB/Akt at 10 uM by HTRF method.
Assay [15] deals with Receptor tyrosine-protein kinase erbB-2 (Homo sapiens) (UniProt P04626). Description: […] against ErbB2 at 10 uM by HTRF method.
Sequence of Receptor tyrosine-protein kinase erbB-2 (Homo sapiens) (P04626 whole entry): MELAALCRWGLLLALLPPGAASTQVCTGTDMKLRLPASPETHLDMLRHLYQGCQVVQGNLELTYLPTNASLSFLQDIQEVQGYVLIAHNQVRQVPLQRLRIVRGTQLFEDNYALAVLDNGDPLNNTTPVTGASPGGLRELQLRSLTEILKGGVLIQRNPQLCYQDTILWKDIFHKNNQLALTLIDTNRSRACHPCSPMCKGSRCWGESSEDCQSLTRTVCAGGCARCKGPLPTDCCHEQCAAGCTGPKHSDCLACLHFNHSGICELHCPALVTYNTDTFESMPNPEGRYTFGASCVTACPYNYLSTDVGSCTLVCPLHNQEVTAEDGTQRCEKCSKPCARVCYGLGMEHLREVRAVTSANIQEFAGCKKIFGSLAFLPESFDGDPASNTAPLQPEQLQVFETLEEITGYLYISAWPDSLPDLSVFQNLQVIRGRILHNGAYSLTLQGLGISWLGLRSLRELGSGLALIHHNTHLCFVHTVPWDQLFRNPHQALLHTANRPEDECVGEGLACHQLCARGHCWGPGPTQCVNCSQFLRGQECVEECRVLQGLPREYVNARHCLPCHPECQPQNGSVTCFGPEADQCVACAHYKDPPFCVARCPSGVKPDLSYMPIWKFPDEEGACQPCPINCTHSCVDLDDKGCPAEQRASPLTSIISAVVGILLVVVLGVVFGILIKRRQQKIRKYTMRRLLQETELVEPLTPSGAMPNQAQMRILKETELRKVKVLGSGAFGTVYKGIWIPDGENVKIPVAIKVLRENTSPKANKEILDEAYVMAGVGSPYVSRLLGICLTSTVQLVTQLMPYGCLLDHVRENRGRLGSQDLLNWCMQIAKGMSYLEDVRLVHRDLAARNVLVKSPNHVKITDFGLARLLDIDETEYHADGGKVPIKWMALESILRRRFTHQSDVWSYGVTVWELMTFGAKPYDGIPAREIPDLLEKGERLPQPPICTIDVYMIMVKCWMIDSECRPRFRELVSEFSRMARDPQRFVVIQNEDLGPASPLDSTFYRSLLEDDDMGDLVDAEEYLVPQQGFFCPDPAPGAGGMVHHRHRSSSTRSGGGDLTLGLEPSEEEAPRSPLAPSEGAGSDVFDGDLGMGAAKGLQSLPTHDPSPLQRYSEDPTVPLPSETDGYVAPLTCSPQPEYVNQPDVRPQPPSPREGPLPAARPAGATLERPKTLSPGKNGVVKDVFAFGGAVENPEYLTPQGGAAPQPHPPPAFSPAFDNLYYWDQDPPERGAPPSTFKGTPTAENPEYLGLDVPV
The target in assay [16] is Epidermal growth factor receptor (Homo sapiens) (UniProt P00533). The assay is described as follows: […] against ErbB1 at 10 uM by HTRF method.
Sequence of Epidermal growth factor receptor (Homo sapiens) (P00533 whole entry): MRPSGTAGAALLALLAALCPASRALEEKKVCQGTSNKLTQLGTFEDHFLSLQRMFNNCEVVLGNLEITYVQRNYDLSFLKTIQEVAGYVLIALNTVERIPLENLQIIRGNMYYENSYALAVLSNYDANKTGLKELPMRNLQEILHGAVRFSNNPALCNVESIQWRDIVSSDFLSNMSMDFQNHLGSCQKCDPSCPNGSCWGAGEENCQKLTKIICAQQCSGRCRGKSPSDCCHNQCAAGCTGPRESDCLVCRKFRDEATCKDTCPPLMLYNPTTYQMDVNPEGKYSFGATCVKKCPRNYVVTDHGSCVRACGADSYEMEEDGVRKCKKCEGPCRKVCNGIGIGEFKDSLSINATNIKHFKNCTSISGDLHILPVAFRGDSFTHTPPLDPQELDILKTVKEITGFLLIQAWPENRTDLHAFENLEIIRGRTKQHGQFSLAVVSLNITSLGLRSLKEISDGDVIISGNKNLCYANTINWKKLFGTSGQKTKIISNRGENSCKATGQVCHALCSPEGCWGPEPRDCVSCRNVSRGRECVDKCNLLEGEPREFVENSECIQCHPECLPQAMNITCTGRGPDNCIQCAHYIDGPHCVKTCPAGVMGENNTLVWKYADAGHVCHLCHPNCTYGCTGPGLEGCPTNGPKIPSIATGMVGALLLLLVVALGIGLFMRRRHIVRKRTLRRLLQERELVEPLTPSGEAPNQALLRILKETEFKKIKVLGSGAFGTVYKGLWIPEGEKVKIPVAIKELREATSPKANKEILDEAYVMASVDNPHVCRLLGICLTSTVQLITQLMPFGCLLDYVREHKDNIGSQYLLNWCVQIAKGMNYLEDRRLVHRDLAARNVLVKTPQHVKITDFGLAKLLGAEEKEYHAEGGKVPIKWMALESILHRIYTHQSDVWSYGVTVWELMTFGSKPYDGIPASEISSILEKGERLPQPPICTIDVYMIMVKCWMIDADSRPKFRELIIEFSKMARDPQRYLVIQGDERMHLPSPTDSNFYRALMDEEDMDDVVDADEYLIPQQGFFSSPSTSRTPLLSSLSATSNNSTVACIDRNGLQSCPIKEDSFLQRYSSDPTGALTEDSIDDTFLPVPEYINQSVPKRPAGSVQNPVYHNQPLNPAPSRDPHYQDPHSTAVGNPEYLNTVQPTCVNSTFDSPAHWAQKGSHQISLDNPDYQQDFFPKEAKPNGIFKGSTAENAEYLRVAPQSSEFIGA

Sequence of Fibroblast growth factor receptor 1 (Homo sapiens) (P11362 22-822 limits assumed): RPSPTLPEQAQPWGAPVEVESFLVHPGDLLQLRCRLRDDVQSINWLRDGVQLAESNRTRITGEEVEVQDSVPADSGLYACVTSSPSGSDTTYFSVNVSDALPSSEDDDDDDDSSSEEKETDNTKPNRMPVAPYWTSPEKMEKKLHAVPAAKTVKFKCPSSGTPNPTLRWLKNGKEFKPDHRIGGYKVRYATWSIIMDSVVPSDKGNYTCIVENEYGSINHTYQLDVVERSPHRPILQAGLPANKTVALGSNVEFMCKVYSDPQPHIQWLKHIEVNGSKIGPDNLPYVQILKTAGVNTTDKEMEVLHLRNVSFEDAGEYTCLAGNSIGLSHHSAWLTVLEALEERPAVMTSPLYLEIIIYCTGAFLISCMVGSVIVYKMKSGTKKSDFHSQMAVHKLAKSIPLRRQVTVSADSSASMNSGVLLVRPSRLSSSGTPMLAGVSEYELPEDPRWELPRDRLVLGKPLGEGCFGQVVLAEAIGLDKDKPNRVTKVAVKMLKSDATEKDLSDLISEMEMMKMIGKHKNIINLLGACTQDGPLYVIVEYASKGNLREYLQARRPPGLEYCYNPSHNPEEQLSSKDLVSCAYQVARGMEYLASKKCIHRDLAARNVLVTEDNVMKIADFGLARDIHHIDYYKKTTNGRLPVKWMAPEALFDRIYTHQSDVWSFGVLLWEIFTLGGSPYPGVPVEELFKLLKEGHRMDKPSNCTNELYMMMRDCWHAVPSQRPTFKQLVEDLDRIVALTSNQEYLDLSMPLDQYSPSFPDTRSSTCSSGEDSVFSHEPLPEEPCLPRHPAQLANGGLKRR

Take `Cc1ccc(Nc2nnc(-c3c(NCc4ccncc4)ncn3C)o2)c(F)c1`: the Activity in assay [1], in assay [2], in assay [4], in assay [5], in [7] and in [8] was less than 30% throughout. Besides, the Activity in assay [10], in [11], in assay [13], in [14] and in [15] was less than 30% throughout. Also, the values for the IC50 in assay [3], in assay [6] and in assay [9] were 260 nM, 590 nM and 640 nM, respectively. Also, the Percent inhibition in [12] and in assay [16] was less than 30% in each case.

Regarding `Cc1cccc(Nc2nnc(-c3c(NCc4ccncc4)ncn3C)o2)c1`, the Activity in assay [1], in assay [2], in [4], in assay [5], in assay [7] and in assay [8] was less than 30% throughout. Further, the Activity in assay [10], in assay [11], in [13], in assay [14] and in [15] was less than 30% in each case. Further, the figures for the IC50 in assay [3] and in [6] were 710 nM and 1260 nM, respectively. Further, the Percent inhibition in [12] and in assay [16] was less than 30% throughout.

On to `COc1ccccc1Nc1nnc(-c2c(NCc3ccncc3)ncn2C)o1`, for which the Activity in assay [1], in assay [2], in assay [4], in [5], in [7] and in [8] was less than 30% throughout. Also, the Activity in assay [10], in assay [11], in assay [13], in assay [14] and in [15] was less than 30% each time. The Percent inhibition in [12] and in assay [16] was less than 30% throughout.

For the compound `Cn1cnc(NCc2ccccn2)c1-c1nnc(Nc2ccc(Cl)cc2)o1`, the Activity in assay [1], in [2], in assay [4], in assay [5], in assay [7] and in assay [8] was less than 30% in each case. Also, the Activity in assay [10], in assay [11], in [13], in assay [14] and in assay [15] was less than 30% in each case. Besides, the IC50 in [3], in assay [6] and in [9] was more than 10000 nM each time. Moreover, the Percent inhibition in [12] and in [16] was less than 30% in each case.

Take `Cn1cnc(NCc2ccncc2)c1-c1nnc(Nc2ccc(Cl)c(C(F)(F)F)c2)o1`: the Activity in assay [1], in [2], in [4], in assay [5], in assay [7] and in assay [8] was less than 30% throughout. In addition, the Activity in assay [10], in assay [11], in assay [13], in assay [14] and in [15] was less than 30% each time. The IC50 in assay [3] came out at 43 nM; in [6], 510 nM; in assay [9] it was 100 nM. Besides, the Percent inhibition in assay [12] and in assay [16] was less than 30% in each case.

On to `Cn1cnc(NCc2ccc(F)c(F)c2)c1-c1nnc(Nc2ccc(Cl)cc2)o1`, for which the Activity in assay [1], in assay [2], in assay [4], in assay [5], in [7] and in [8] was less than 30% in each case. Further, the Activity in assay [10], in assay [11], in assay [13], in assay [14] and in assay [15] was less than 30% throughout. Further, the figures for the IC50 in assay [3], in assay [6] and in assay [9] were 1860 nM, 3310 nM and 5650 nM, respectively. Moreover, the Percent inhibition in assay [12] and in assay [16] was less than 30% each time.

As to `Cn1cnc(NCc2ccncc2)c1-c1nnc(Nc2ccc(Oc3ccccc3)cc2)o1`, the Activity in assay [1], in assay [2], in assay [4], in assay [5], in assay [7] and in assay [8] was less than 30% in each case. Besides, the Activity in [10], in assay [11], in [13], in assay [14] and in [15] was less than 30% each time. For the same compound, the IC50 in [3] and in assay [6] was more than 10000 nM in each case. In addition, the Percent inhibition in assay [12] and in [16] was less than 30% in each case.

In the case of `Cn1cnc(NCc2ccncc2)c1-c1nnc(Nc2ccc(Br)cc2)o1`, the Activity in assay [1], in assay [2], in assay [4], in assay [5], in assay [7] and in [8] was less than 30% each time. Moreover, the Activity in [10], in [11], in assay [13], in [14] and in assay [15] was less than 30% in each case. Further, the IC50 in [3] was found to be 730 nM; in assay [6], 1470 nM. The Percent inhibition in assay [12] and in [16] was less than 30% throughout.

In the case of `Cn1cnc(NCc2ccncc2)c1-c1nnc(Nc2ccc(-c3ccccc3)cc2)o1`, the Activity in assay [1], in assay [2], in assay [4], in [5], in assay [7] and in assay [8] was less than 30% each time. Further, the Activity in assay [10], in assay [11], in assay [13], in assay [14] and in assay [15] was less than 30% in each case. Also, the values for the IC50 in assay [3] and in [6] were 3220 nM and more than 10000 nM, respectively. Further, the Percent inhibition in [12] and in assay [16] was less than 30% each time.

As for `Cn1cnc(NCc2ccncc2)c1-c1nnc(Nc2ccc(Cc3ccccc3)cc2)o1`, the Activity in assay [1], in assay [2], in assay [4], in assay [5], in [7] and in assay [8] was less than 30% each time. Besides, the Activity in assay [10], in [11], in assay [13], in [14] and in [15] was less than 30% throughout. Moreover, the IC50 in assay [3] and in [6] was more than 10000 nM in each case. The Percent inhibition in [12] and in [16] was less than 30% each time.

For the compound `Cc1ccccc1Nc1nnc(-c2c(NCc3ccncc3)ncn2C)o1`, the Activity in assay [1], in assay [2], in assay [4], in assay [5], in assay [7] and in [8] was less than 30% throughout. In addition, the Activity in assay [10], in [11], in [13], in [14] and in assay [15] was less than 30% throughout. Besides, the IC50 in assay [3] and in assay [6] was more than 10000 nM throughout. Moreover, the Percent inhibition in assay [12] and in assay [16] was less than 30% each time.
